According to patent US20260285850A1, “SUBSTITUTED OXAZOLIDINONES AND IMIDAZOLINONES AS HERBICIDES” (FMC CORPORATION, priority 2023, published 2026):

Legend:
Format in all cases: in vivo
[1] = test system: wheat (Triticum aestivum); assay: Test A postemergence application, visual injury rating 0-100
In short: (§1)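 Plants in a loam and sand soil blend were treated with each test chemical, in a non-phytotoxic solvent system including surfactant, either sprayed on seeded soil before emergence or applied after emergence at the one- to two-leaf stage. Ten days later in the greenhouse, plants were compared with untreated controls and visually rated from 0 (no effect) to 100 (complete control).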

[2] = test system: horseweed (Erigeron canadensis); assay: as above
In short: as §1

[3] = test system: blackgrass (Alopecurus myosuroides); assay: as above
In short: as §1

[4] = test system: ragweed (common ragweed, Ambrosia artemisiifolia); assay: as above
In short: as §1

[5] = test system: palmer (palmer amaranth, palmer pigweed, Amaranthus palmeri); assay: as above
In short: as §1

[6] = test system: ryegrass, Italian (italian ryegrass, Lolium multiflorum); assay: as above
In short: as §1

corn (Zea mays) [7] = assay: as above
In short: as §1

soybean (Glycine max) [8] = assay: as above
In short: as §1

[9] = test system: galium (catchweed bedstraw, Galium aparine); assay: as above
In short: as §1

[10] = test system: oat, wild (wild oat, Avena fatua); assay: as above
In short: as §1

[11] = test system: green foxtail (Setaria viridis); assay: as above
In short: as §1

[12] = test system: barnyardgrass (Echinochloa crus-galli); assay: as above
In short: as §1

kochia (Bassia scoparia) [13] = assay: as above
In short: as §1

[14] = test system: wheat (Triticum aestivum); assay: Test A preemergence soil spray, visual injury rating 0-100; conditions: 10 days
In short: as §1

[15] = test system: blackgrass (Alopecurus myosuroides); assay: as above; conditions: 10 days
In short: as §1

[16] = test system: ragweed (common ragweed, Ambrosia artemisiifolia); assay: as above; conditions: 10 days
In short: as §1

[17] = test system: palmer (palmer amaranth, palmer pigweed, Amaranthus palmeri); assay: as above; conditions: 10 days
In short: as §1

[18] = test system: ryegrass, Italian (italian ryegrass, Lolium multiflorum); assay: as above; conditions: 10 days
In short: as §1

corn (Zea mays) [19] = assay: as above; conditions: 10 days
In short: as §1

soybean (Glycine max) [20] = assay: as above; conditions: 10 days
In short: as §1

[21] = test system: oat, wild (wild oat, Avena fatua); assay: as above; conditions: 10 days
In short: as §1

[22] = test system: green foxtail (Setaria viridis); assay: as above; conditions: 10 days
In short: as §1

[23] = test system: barnyardgrass (Echinochloa crus-galli); assay: as above; conditions: 10 days
In short: as §1

kochia (Bassia scoparia) [24] = assay: as above; conditions: 62 g ai/ha, 10 days, 0 = no effect, 100 = complete control
In short: as §1

[25] = test system: sedge, umbrella (small-flower umbrella sedge, Cyperus difformis); assay: Test B flooded paddy test, visual plant response rating 0-100; conditions: 250 g ai/ha, Flood, applied to paddy water, evaluated after 13 days
In short: (§2)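 Compounds applied to standing paddy water (3 cm above soil, maintained for the test duration) on 2-leaf-stage plants; visual rating vs controls at 13 days, greenhouse.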

[26] = test system: barnyardgrass (Echinochloa crusgalli); assay: as above; conditions: 250 g ai/ha, Flood, applied to paddy water, evaluated after 13 days
In short: as §2

rice (Oryza sativa) = assay: as above; conditions: 250 g ai/ha, Flood, applied to paddy water, evaluated after 13 days
In short: as §2

[27] = test system: ducksalad (Heteranthera limosa); assay: as above; conditions: 250 g ai/ha, Flood, applied to paddy water, evaluated after 13 days
In short: as §2

[28] = 62 g ai/ha, postemergence, 10 days, 0 = no effect, 100 = complete control
[29] = Postemergence, 16 g ai/ha, greenhouse 10 days, 0 no effect, 100 complete control
[30] = 62 g ai/ha, 0 = no effect, 100 = complete control

Structure (SMILES): COC(=O)C1C=CC(NC(=O)C2(C)CN(c3cc(C)cc(C)c3)C(=O)O2)C1 (stereo not drawn) [Compound 115]
- Wheat plant response rating (0-100) [1, 28]: 80
- Wheat plant response rating (0 to 100 scale) [1, 29]: 30
- Horseweed plant response rating (0-100) [2, 28]: 0
- Horseweed plant response rating (0 to 100 scale) [2, 29]: 10
- Blackgrass plant response rating (0-100) [3, 28]: 90
- Blackgrass plant response rating (0 to 100 scale) [3, 29]: 70
- Ragweed plant response rating (0-100) [4, 28]: 30
- Ragweed plant response rating (0 to 100 scale) [4, 29]: 0
- Pigweed, Palmer plant response rating (0-100) [5, 28]: 10
- Pigweed, Palmer plant response rating (0 to 100 scale) [5, 29]: 10
- Ryegrass, Italian plant response rating (0-100) [6, 28]: 70
- Ryegrass, Italian plant response rating (0 to 100 scale) [6, 29]: 40
- Corn plant response rating (0-100) (corn (Zea mays) [7]; [28]): 100
- Corn plant response rating (0 to 100 scale) (corn (Zea mays) [7]; [29]): 60
- Soybean plant response rating (0-100) (soybean (Glycine max) [8]; [28]): 60
- Soybean plant response rating (0 to 100 scale) (soybean (Glycine max) [8]; [29]): 40
- Galium plant response rating (0-100) [9, 28]: 70
- Galium plant response rating (0 to 100 scale) [9, 29]: 60
- Oat, Wild plant response rating (0-100) [10, 28]: 90
- Oat, Wild plant response rating (0 to 100 scale) [10, 29]: 80
- Foxtail, Green plant response rating (0-100) [11, 28]: 30
- Foxtail, Green plant response rating (0 to 100 scale) [11, 29]: 10
- Barnyardgrass plant response rating (0-100) [12, 28]: 100
- Barnyardgrass plant response rating (0 to 100 scale) [12, 29]: 70
- Kochia plant response rating (0-100) (kochia (Bassia scoparia) [13]; [28]): 70
- Kochia plant response rating (0 to 100 scale) (kochia (Bassia scoparia) [13]; [29]): 0
- Wheat plant response rating ([14]; 16 g ai/ha, 0 to 100 scale): 0
- Wheat plant response rating (0-100) [14, 30]: 30
- Blackgrass plant response rating ([15]; 16 g ai/ha, 0 to 100 scale): 20
- Blackgrass plant response rating (0-100) [15, 30]: 60
- Ragweed plant response rating ([16]; 16 g ai/ha, 0 to 100 scale): 0
- Ragweed plant response rating (0-100) [16, 30]: 0
- Pigweed, Palmer plant response rating ([17]; 16 g ai/ha, 0 to 100 scale): 20
- Pigweed, Palmer plant response rating (0-100) [17, 30]: 90
- Ryegrass, Italian plant response rating ([18]; 16 g ai/ha, 0 to 100 scale): 10
- Ryegrass, Italian plant response rating (0-100) [18, 30]: 30
- Corn plant response rating (corn (Zea mays) [19]; 16 g ai/ha, 0 to 100 scale): 0
- Corn plant response rating (0-100) (corn (Zea mays) [19]; [30]): 20
- Soybean plant response rating (soybean (Glycine max) [20]; 16 g ai/ha, 0 to 100 scale): 0
- Soybean plant response rating (0-100) (soybean (Glycine max) [20]; [30]): 0
- Oat, Wild plant response rating ([21]; 16 g ai/ha, 0 to 100 scale): 0
- Oat, Wild plant response rating (0-100) [21, 30]: 40
- Foxtail, Green plant response rating ([22]; 16 g ai/ha, 0 to 100 scale): 0
- Foxtail, Green plant response rating (0-100) [22, 30]: 30
- Barnyardgrass plant response rating ([23]; 16 g ai/ha, 0 to 100 scale): 30
- Barnyardgrass plant response rating (0-100) [23, 30]: 100
- Kochia plant response rating (0-100) (kochia (Bassia scoparia) [24]): 100
- Plant response rating, Sedge, Umbrella (0 to 100 scale, 0 is no effect and 100 is complete control) [25]: 0
- Plant response rating, Barnyardgrass (0 to 100 scale, 0 is no effect and 100 is complete control) [26]: 65
- Plant response rating, Rice (0 to 100 scale, 0 is no effect and 100 is complete control) (rice (Oryza sativa)): 25
- Plant response rating, Ducksalad (0 to 100 scale, 0 is no effect and 100 is complete control) [27]: 80
